Data on two molecules can be found in ChEMBL document CHEMBL1134960, “Benzotrithiole 2-oxide: a new family of thiol-activated DNA-cleaving functionalities” (Bioorg Med Chem Lett, 2002).

Format in all cases: functional, cell-based
Test [1] relates to A498. The test is described as follows: Cytotoxicity against human kidney carcinoma cell lines A4982LM.
Test [2] concerns A549. As to the kind of experiment: Cytotoxicity against […] cell lines A549 was determined. Particulars: Homo sapiens.
In test [3] the test system is HT-29. As to the kind of experiment: Cytotoxicity against Colon cancer cell lines HT-29 was determined. To be noted: Homo sapiens.
Test [4] can be described thus: Cytotoxicity against Breast cancer cell lines MDA-231 was determined. Particulars: Homo sapiens.
Test [5] is described as follows: Cytotoxicity against […] cancer cell lines PACA2 was determined. To be noted: Homo sapiens.
Test [6] deals with PC-3. As to the kind of experiment: Cytotoxicity against prostate cancer cell lines PC-3 was determined. To be noted: Homo sapiens.
The test system of test [7] is UMUC3. As to the kind of experiment: Cytotoxicity against bladder cancer cell lines UMUC3 was determined. To be noted: Homo sapiens.
In test [8] the test system is MCF7. The test is described as follows: Cytotoxicity against human breast carcinoma cell lines MCF-7.

As usually defined, the IC50 is the concentration at which inhibition is half-maximal. A lower IC50 goes with greater potency. Regarding `[O-][S+]1Sc2ccccc2S1`, the concentration for half-maximal inhibition (IC50) in test [1] worked out at 850 nM; in test [2], 151 nM; in test [3], 78.9 nM; in test [4] it was 627 nM; in test [5], 982 nM; in test [6], 62.9 nM. The results for the concentration for half-maximal inhibition (IC50) in test [7] and in test [8] were 366 nM and 209 nM, respectively.
For `COc1cccc2c1C(=O)c1c(O)c3c(c(O)c1C2=O)C[C@@](O)(C(=O)CO)C[C@@H]3O[C@H]1C[C@H](N)[C@H](O)[C@H](C)O1` [DOXORUBICIN], the IC50 in test [1] is 52.8 nM; in test [3] it was 61.8 nM; in test [4], 1.95 nM; in test [5], 8.7 nM; in test [7], 9.2 nM.
